System: H1 human embryonic stem cells
Test: Step-wise differentiation, RT-PCR of differentiation markers (Example 12, Table 13)
Type: cell-based
Details: GDF-8 200 ng/ml with Wnt3a or 2.5 μM compound in step 1, versus activin A/Wnt3a
Method: Stock cultures of human embryonic stem cells (H1 human embryonic stem cell line) were maintained in an undifferentiated, pluripotent state on reduced growth factor […]™-coated dishes in MEF conditioned medium with passage on average every four days. Passage was performed by exposing cell cultures to a solution of 1 mg/ml dispase (Invitrogen; Cat #17105-041) for 5 to 7 minutes at 37° C. followed by rinsing the monolayer with MEF conditioned culture medium and gentle scraping to recover cell clusters. Clusters were centrifuged at low speed to collect a cell pellet and remove residual dispase. Cell clusters were split at a 1:3 or 1:4 ratio for routine maintenance culture or a 1:1 ratio for immediate assay. All human ES cell lines were maintained at passage numbers less than 50 and routinely evaluated for normal karyotype and absence of mycoplasma.
Cell clusters were evenly resuspended in MEF conditioned medium supplemented with 8 ng/ml bFGF and seeded onto reduced growth factor […]™-coated 24-well, black wall culture plates (Arctic White; Cat #AWLS-303012) in volumes of 0.5 ml/well. Daily feeding was conducted by aspirating spent culture medium from each well and replacing with an equal volume of fresh medium. Plates were maintained at 37° C., 5% CO2 throughout the duration of assay.
The assay was initiated by aspirating the culture medium from each well and adding back an aliquot (0.5 ml) of test medium. Test conditions for the first step of differentiation were conducted over a three-day period, feeding daily by aspirating and replacing the medium from each well with fresh test medium. On the first day of assay, 100 ng/ml activin A (PeproTech; Cat #120-14) or 200 ng/ml GDF-8 (R&D Systems, Cat #788-G8) was added to respective assay wells where each growth factor was diluted into RPMI-1640 medium (Invitrogen; Cat #22400) with 1% Albumin Bovine Fraction V, Fatty Acid Free (FAF BSA) (MP Biomedicals, Inc; Cat 152401), 1% Probumin (Millipore; Cat #81-068-3) and 20 ng/ml Wnt3a (R&D Systems; Cat #1324-WN/CF). […]

Compound	expression levels of markers associated with endodermal and endocrine differentiation (PCR)
Cc1c[nH]c(-c2cnc(NCCNc3ccc(C#N)cn3)nc2-c2ccc(Cl)cc2Cl)n1 [Compound 56, 6-[(2-{[4-(2,4-Dichlorophenyl)-5-(4-methyl-1H-imidazol-2-yl)pyrimidin-2-yl]amino}ethyl)amino]pyridine-3-carbonitrile]	similar, or in some instances, improved expression levels
GDF-8: growth factor GDF-8, also known as myostatin, member of the TGF-β family	similar, or in some instances, improved expression levels
O=C1CCN2CCN(CC2)Cc2cc(Cl)cc(c2)Nc2ncnc(n2)-c2cncc(c2)CCCN1 [Compound 34, 5-Chloro-1,8,10,12,16,22,26,32-octaazapentacyclo[24.2.2.1˜3.7˜0.1˜9,13˜0.1˜14.18˜]tritriaconta-3(33), 4,6,9(32), 10,12,14(31), 15,17-nonaen-23-one]	similar, or in some instances, improved expression levels
